In PMC8623418, “Novel Multitarget Hydroxamic Acids with a Natural Origin CAP Group against Alzheimer’s Disease: Synthesis, Docking and Biological Evaluation” (Pharmaceutics, 2021):

Experiments:
[1] = test system: lipid peroxidation (LPO) of rat brain homogenate; assay: Lipid peroxidation (LPO) of rat brain homogenate, TBARS test; type: biochemical; conditions: substances at 100 μM, mean ± SEM; for % of Activity, Inhibition of LPO, Fe (II): Fe (II)-induced; for % of Activity, Inhibition of LPO, t-BHP: t-BHP-induced
Experimental: To obtain the brain homogenate, rats preliminarily anesthetized with CO2 were decapitated with a guillotine. The brain was homogenized in a buffer containing KCl (120 mM) and HEPES (20 mM), pH = 7.4 at 4 °C, and centrifuged at 1500 rpm to obtain a supernatant. The protein was quantified according to the standard microbiuret method.
To investigate the effect of the compounds on lipid peroxidation (LPO) of rat brain homogenate, we used the modified version of the TBARS test, which is based on the reaction of 2-thiobarbituric acid with the end LPO product—malonic dialdehyde (MDA). The plate well, according to the experimental scheme, contained the compounds under study (100 μM), rat brain homogenate (2 mg/mL), as well as ferrous iron ions ([…]) at a concentration of 500 μM and 1.6 mM tert-butyl hydroxyperoxide as an initiator. After 30 min of incubation at 37 °C, TBARS reagent was added to all samples, incubated for 90 min at 90 °C, and centrifuged at 6000 rpm for 15 min. The optical density of the selected supernatant was measured on a Victor 3 plate reader (Perkin Elmer) at λ = 540 nm.
A rat brain homogenate preparation containing fragments of cell membranes was used as a model system to investigate the antioxidant activity of the hydroxamic acids. To initiate the process of lipid peroxidation, ferrous ions were used to trigger the Fenton reaction, during which the iron valence changes and a highly reactive hydroxyl radical is formed, and tert-butyl hydroxyperoxide as a direct source of free radicals.

[2] = test system: SH-SY5Y cells; assay: MTT cell viability, SH-SY5Y; type: cell-based; conditions: Homo sapiens, MTT test
Experimental: (§1) The effect of the hydroxamic acids on the viability of cells obtained from human embryonic kidneys, HEK 293, as well as the native form of human neuroblastoma, SH-SY5Y, was evaluated in the MTT test. Using a multifunctional flatbed analyzer, Cytation™3 (BioTek Instruments, Inc., Winooski, VT, USA), the optical density was determined at a wavelength of 530 nm. Based on the dose-dependent curves, the concentration values leading to 50% inhibition of cell population growth (IC50) were calculated.
(§2) Due to the fact that most compounds of the class of hydroxamic acids have high cytotoxic activity and are mainly used as anticancer drugs, their use as neuroprotective drugs is limited. Since the goal of our work was to search for agents for the pharmacological correction of neurodegenerative diseases, a necessary part of the biological activity study of the synthesized hydroxamic acids was to determine their effect on the survival of cell cultures. In our work, we used neuron-like neuroblastoma cells SH-SY5Y and a healthy cell line isolated from the human embryonic kidney, HEK 293.

[3] = test system: HEK 293 cells; assay: MTT cell viability, HEK 293; type: cell-based; conditions: Homo sapiens, HEK293; HEK-293, MTT test
Experimental: as §1, §2

[4] = DPPH test of antiradical activity; conditions: substances at 100 μM, mean ± SEM
Experimental: The DPPH test was used to examine antiradical activity based on the ability of a stable chromogen radical of 2,2-diphenyl-1-picrylhydrazyl (DPPH) to remove a hydrogen atom, which is accompanied by a change in the absorption maximum in the electronic absorption spectra. The amount of reduced DPPH was measured using a Cytation ™ 3 multifunctional plate analyzer (BioTek Instruments, Inc., Winooski, VT, USA) at a wavelength of 517 nm.
The antiradical activity of the test compounds was evaluated by the DPPH test, based on the ability of antioxidants to donate an electron to the stable chromogen radical DPPH, converting it into a nonradical form and neutralizing its activity. […] The chromogenic free radical DPPH used in this test has a large size, and substances even with a similar chemical structure may have different antiradical properties due to spatially difficult access.

[5] = biological target: T1, HDAC6 (Homo sapiens, UniProt Q9UBN7); assay: HDAC6 enzyme activity, FLUOR DE LYS fluorometric kit; type: biochemical; conditions: mean ± SEM; read-out: IC50 HDAC6 Inhibitory Activity
T1 construct: purchased Enzo Life Sciences (Enzo Biochem, New York, NY, USA)
T1 sequence (Q9UBN7 1-1215): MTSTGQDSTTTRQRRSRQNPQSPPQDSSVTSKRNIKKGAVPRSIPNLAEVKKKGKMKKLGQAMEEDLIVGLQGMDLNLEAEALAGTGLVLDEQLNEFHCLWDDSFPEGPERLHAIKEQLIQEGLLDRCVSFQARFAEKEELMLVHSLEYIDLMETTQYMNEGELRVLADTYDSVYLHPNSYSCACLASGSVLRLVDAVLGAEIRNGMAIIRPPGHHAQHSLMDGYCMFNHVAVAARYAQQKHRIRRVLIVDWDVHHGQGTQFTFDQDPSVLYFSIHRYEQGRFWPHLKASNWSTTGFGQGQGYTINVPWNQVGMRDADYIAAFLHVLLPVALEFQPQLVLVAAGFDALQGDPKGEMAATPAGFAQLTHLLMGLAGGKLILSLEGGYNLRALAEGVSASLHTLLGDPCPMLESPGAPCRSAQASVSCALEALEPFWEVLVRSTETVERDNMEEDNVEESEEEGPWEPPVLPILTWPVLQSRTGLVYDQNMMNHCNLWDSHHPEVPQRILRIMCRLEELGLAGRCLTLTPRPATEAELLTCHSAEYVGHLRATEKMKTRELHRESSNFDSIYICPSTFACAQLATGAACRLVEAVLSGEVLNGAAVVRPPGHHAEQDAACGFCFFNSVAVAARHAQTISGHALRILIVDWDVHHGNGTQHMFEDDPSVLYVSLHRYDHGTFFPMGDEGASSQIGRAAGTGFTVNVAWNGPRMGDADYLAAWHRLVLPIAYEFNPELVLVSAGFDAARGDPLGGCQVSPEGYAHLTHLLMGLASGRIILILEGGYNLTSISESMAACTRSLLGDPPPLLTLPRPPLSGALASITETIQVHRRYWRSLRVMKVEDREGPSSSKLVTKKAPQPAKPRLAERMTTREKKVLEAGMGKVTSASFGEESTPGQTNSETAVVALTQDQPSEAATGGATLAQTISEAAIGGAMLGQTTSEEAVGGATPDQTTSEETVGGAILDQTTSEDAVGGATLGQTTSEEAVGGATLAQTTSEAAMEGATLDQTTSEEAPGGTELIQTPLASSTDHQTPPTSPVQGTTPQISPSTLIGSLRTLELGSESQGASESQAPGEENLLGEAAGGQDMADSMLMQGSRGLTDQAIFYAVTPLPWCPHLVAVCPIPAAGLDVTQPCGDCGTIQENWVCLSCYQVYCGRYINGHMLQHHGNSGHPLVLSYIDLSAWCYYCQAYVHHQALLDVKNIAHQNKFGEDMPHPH

| Structure (SMILES) | melting point [°C] | % of Activity, Inhibition of LPO, Fe (II) [1] | % of Activity, Inhibition of LPO, t-BHP [1] | IC50 [2] [µM] | IC50 [3] [µM] | % of Activity, Antiradical Activity [4] | IC50 [5] [µM] |
| --- | --- | --- | --- | --- | --- | --- | --- |
| O=C(NO)C1C2CC3CC(C2)CC1C3 (stereo not drawn) [compound 2, N-Hydroxyadamantane-2-Carboxamide] | 173.4 | - (The ‘-’ mark indicates the lack of activity of the test substances (≤10%) in a particular test) | - (The ‘-’ mark indicates the lack of activity of the test substances (≤10%) in a particular test) | > 100 | > 100 | 32.02 ± 3.33% | – |
| O=C(NO)C12CC3CC(CC(C3)C1)C2 [compound 1, N-Hydroxyadamantane-1-Carboxamide] | 149 to 149.3 | - (The ‘-’ mark indicates the lack of activity of the test substances (≤10%) in a particular test) | - (The ‘-’ mark indicates the lack of activity of the test substances (≤10%) in a particular test) | > 100 | > 100 | - (The ‘-’ mark indicates the lack of activity of the test substances (≤10%) in a particular test) | – |
| CC1(C)[C@H]2CC[C@](C)(C2)[C@H]1NC(=O)CCCCCCC(=O)NO [compound 13, N^1-Hydroxy-N^8-((1R,2R,4S)-1,3,3-Trimethylbicyclo[2.2.1]heptan-2-yl)octanediamide] | 45.1 | 28.90 ± 3.38% | 24.02 ± 3.44% | > 100 | > 100 | - (The ‘-’ mark indicates the lack of activity of the test substances (≤10%) in a particular test) | 9.44 ± 0.74 |
| Cc1c(C)c2c(c(C)c1O)CCC(C)(C(=O)O)O2 (stereo not drawn) [Trolox, reference compound] | – | 97.21 ± 4.09% | 99.11 ± 3.72% | – | – | – | – |
| CC(/C=C/C(=O)NO)=C\[C@@H](C)C(=O)c1ccc(N(C)C)cc1 [Trich. A, Trichostatin A, reference compound] | – | - (The ‘-’ mark indicates the lack of activity of the test substances (≤10%) in a particular test) | - (The ‘-’ mark indicates the lack of activity of the test substances (≤10%) in a particular test) | – | – | - (The ‘-’ mark indicates the lack of activity of the test substances (≤10%) in a particular test) | – |
| CC1(C)[C@@H]2CC[C@@]1(C)[C@H](NC(=O)CCCCCCC(=O)NO)C2 [compound 11, N^1-Hydroxy-N^8-((1R,2R,4R)-1,7,7-Trimethylbicyclo [2.2.1]heptan-2-yl)octanediamide] | 94.8 | 28.39 ±7.41% | 35.96 ± 1.99% | 51.9 ± 3.56 | > 100 | 22.22 ± 1.40% | 0.69 ± 0.02 |
| CC1(C)[C@H]2CC[C@](C)(C2)[C@H]1NC(=O)CCCCCCCC(=O)NO [compound 14, N^1-Hydroxy-N^9-((1R,2R,4S)-1,3,3-Trimethylbicyclo[2.2.1]heptan-2-yl)nonanediamide] | 44.9 | 37.91 ± 1.08% | 22.62 ± 4.31% | > 100 | > 100 | - (The ‘-’ mark indicates the lack of activity of the test substances (≤10%) in a particular test) | 4.48 ± 0.13 |
| CC1(C)[C@@H]2CC[C@@]1(C)[C@H](NC(=O)CCCCCCCC(=O)NO)C2 [compound 12, N^1-Hydroxy-N^9-((1R,2R,4R)-1,7,7-Trimethylbicyclo [2.2.1]heptan-2-yl)nonanediamide] | 50.4 | 44.02 ± 1.57% | 30.36 ± 1.98% | > 100 | > 100 | - (The ‘-’ mark indicates the lack of activity of the test substances (≤10%) in a particular test) | 4.06 ± 0.48 |
